Experimental findings from patent US20150148234A1, “HERBICIDE-RESISTANT SUNFLOWER PLANTS WITH MULTIPLE HERBICIDE RESISTANT ALLELES OF AHASL1 AND METHODS OF USE” (NIDERA S.A., priority 2013, published 2015) are described below.

Structures are written as SMILES.

For assay [1], the system named is heterozygous A205V entries. The experiment in a line: field phytotoxicity trial North Dakota 2006 (Example 3). It counts as in vivo, sunflower. The following applies: 160 g ai/ha of imazapyr, 21 DAT. On the procedure: (§1) • Spray volume: 10 gallons per acre (GPA) (or 100 liters/ha) for backpack sprayer or 20 GPA (or 200 liters/ha) for tractor mounted boom • Growth Stage at Herbicide Application: 2-4 leaves • Entry 15 (WT Maintainer line) was left unsprayed in all treatment blocks.
(§2) Phytotoxicity ratings were assessed at 7 and 21 days following herbicide application.
(§3) The data was subjected to an ANOVA analysis and the means from the 3 repetitions are presented in Table 7 (phytotoxicity at 7 days post-treatment) and Table 8 (phytotoxicity at 21 days post-treatment).

The subject of assay [2] is sunflower line VB141 (high oleic). Kind of assay: tolerance to imidazolinones, greenhouse (Example 8).
Assay [3] relates to control line HA425 (A205V). The experiment in a line: imazapyr challenge of segregating population (Example 1). It counts as in vivo, sunflower. The following applies: 320 g a.i. ha-1. The procedure:
(§4) To determine the phenotypic interactions of the resistance gene A122T and the Imr1 gene (A205V) already described in IMI-R sunflowers (HA425), F1, F2 and BC1F1 populations from the cross GM40 (A122T)/HA425 (A205V) were evaluated at two herbicide applications rates (80 and 320 g. a. i. Ha^−1 of imazapyr). […] When F2 and BC1F1 populations were scored at the higher herbicide rate (320 g. a. i. Ha-1), which discriminates both parents, segregation for susceptibility was observed. Only two phenotypic classes could be detected, a resistant class with plants without any injury or slight symptoms and a susceptible phenotype that was killed like the control line HA425.

The test system of assay [4] is sunflower hybrid H3 (L3*L2), 122/205. The experiment in a line: field trial, imazapyr at V8 or R1 stage (Example 4). The following applies: H3 122/205.
In assay [5] the test system is sunflower line BTI-OL-M1709. The experiment in a line: tolerance to imidazolinones, greenhouse (Example 8). Conditions: 160 gr/ha at V4, fourteen days after treatment.
Assay [6] relates to F2 population from the cross GM40 (A122T)/HA425 (A205V). The experiment in a line: imazapyr challenge of segregating population (Example 1). It counts as in vivo, sunflower. The following applies: 320 g a.i. ha-1; eighty F2 plants. On the procedure:
as §4
The AHASL1 gene in sunflower presents a simple sequence repeat (SSR) polymorphism which discriminates lines carrying the Imr1 allele from any other sunflower genotype (Kolkman et al. (2004) Theor. Appl. Genet. 109: 1147-1159). […] This length variant polymorphism detected in GM40 and HA425 was exploited to investigate the segregation in the F2 and BC1F1 populations derived from crossing both lines. […] The cosegregation of herbicide resistance phenotypes and AHASL1 haplotypes was further assessed on 50 BC1F1 progeny segregating for resistance. […]

Assay [7] has as its system sunflower line GM40 (A122T). The experiment in a line: tolerance to imidazolinones, greenhouse (Example 8). The following applies: 160 gr/ha at V4, fourteen days after treatment.
Assay [8] deals with sunflower line OB712 (high oleic). Described as above.
The test system of assay [9] is heterozygous A205V/A122T lines. Kind of assay: field phytotoxicity trial North Dakota 2006 (Example 3). It counts as in vivo, sunflower. Conditions: 200 g ai/ha of imazamox, 21 DAT. The procedure:
as §1, §2, §3

The test system of assay [10] is homozygous A122T/A122T lines. Described as above. It counts as in vivo, sunflower. The following applies: 200 g ai/ha of imazamox, 21 DAT. The procedure:
as §1, §2, §3

Assay [11] has as its system homozygous A205V/A205V lines. The description is as above. The following applies: 200 g ai/ha of imazamox, 21 DAT. It counts as in vivo, sunflower. On the procedure:
as §1, §2, §3

For assay [12], the system named is AHAS enzyme of WT line (B7). Kind of assay: AHAS enzyme activity assay, Sets 1 and 2. It counts as biochemical, sunflower. Conditions: 100 μM. On the procedure:
Twelve greenhouse grown sunflower plants from each of the lines depicted in Table 21 were bulked and subjected to an AHAS enzyme activity assay via the method of Singh et al. (1988) Anal. Biochem. 171:173-179. Each activity assay was repeated twice. Due to the large number of samples, the experiment was split into two sets (Table 21).
Young, actively growing leaves, from four week old plantlets, were ground in a mortar and pestle with liquid N2 and extracted with a buffer composed of 100 mM Pyruvate, 200 mM KH2PO4, 20 mM MgCl2, 2 mM thiamine pyrophosphate and […]. Plant extracts were then spun through a 10 mL Zeba™ TM desalt spin column (Pierce #89893) as per the manufacturer's recommendation. The inhibition assay was performed as described by Singh et al. (1988) Anal. Biochem. 171:173-179. Assays were conducted in a 96-well format. Fifty μl of inhibitor was added to each well containing 50 μl of soluble protein extract to give final concentrations of 0.78, 1.56, 3.125, 6.25, 12.5, 25, 50 and 100 μM imazamox or 0.78, 1.56, 3.125, 6.25, 12.5, 25, 50 and 100 μM imazapyr. Zero herbicide controls were also included for each line. […] Absorbance was measured at 530 nm. AHAS activity, expressed as the mean of the absorbance values for each treatment, was presented as a percentage of the mean of the zero-herbicide controls.

Where [13] appears, read: 160 gr/ha at V4, fourteen days after treatment.

In the case of `CC(C)C1(C)N=C(c2ncccc2C(=O)O)NC1=O` (stereo not shown) [imazapyr], in assay [1], the phytotoxicity is listed as 20-43%. The “outcome of the herbicide treatment” value in assay [2] (160 gr/ha at V4) and in assay [8] (160 gr/ha at V4) was “killed” throughout. Further, the “Mean Phytotoxicity Index (0-9)” value in assay [2] (setting [13]) is recorded as 8.5; in assay [5], 0.2; in assay [7], 0.2; in assay [8] (setting [13]), 9. Also, in assay [3], the “outcome of herbicide application” value is reported as “killed”. Further, the “Mean Phytotoxicity Index (0-50)” value in [4] (160 g ai/ha applied at R1, 14 DAT) turned out to be 4.3; in assay [4] (160 g ai/ha applied at R1, 21 DAT) it was 0.7; in [4] (160 g ai/ha applied at V8, 14 DAT), 3; in [4] (160 g ai/ha applied at V8, 21 DAT), 0. In addition, the “plants killed by the herbicide (S)” value in [6] stood at 22 plants. Also, the “plants with no symptoms or a slight injury (R)” value in [6] worked out at 58 plants.
Consider `COCc1cnc(C2=NC(C)(C(C)C)C(=O)N2)c(C(=O)O)c1` (stereo not shown) [imazamox], for which the phytotoxicity in assay [9] is given as 2-3%; in assay [10], 3-5%; in [11], 15-22%. Besides, the “AHAS activity, % of untreated control” value is given as 17% in assay [12] (Set 1 (FIG. 13)) and 11% in assay [12] (Set 2 (FIG. 14)).
